{"source": "patent EP0621773B1", "about": "“FORMULATION AND USE OF CAROTENOIDS IN TREATMENT OF CANCER” (BOARD OF REGENTS THE UNIVERSITY OF TEXAS SYSTEM, priority 1992, dated 1993)", "key": {"[1]": {"tested_on": "human red blood cells (RBCs)", "test": "In vitro lysis of human erythrocytes (hemoglobin release, optical density at 550 nm)", "type": "cell-based", "description": "Lysis of human red blood cells (RBCs) was quantitated by measuring the release of hemoglobin in the supernatants by observation of increases in optical density at 550 nanometers (nm), as described previously (Mehta, et al., Biochem. Biophys, Acta., Vol. 770-, pp 230-234 (1984). Free-RA dissolved in dimethyl formamide (DMFA), was added to the RBCs. Results with appropriate solvent controls, empty liposomes, and empty liposomes plus free-drug were also noted. Release of hemoglobin by hypotonic lysis of the same number of human RBCs by water was taken as a 100% positive control, while cells treated with PBS were taken as negative controls.\nPreparations of L-RA comprising various lipids were incubated at a concentration of 20 microgram (µg) RA per ml with RBCs in PBS for 4 hr at 37°C.\nA further experiment concerning the toxicity over time of free RA and L-RA (DMPC:DMPG-7:3) toward RBC was conducted. Human erythrocytes were incubated at 37°C in PBS with 10 ug/ml free RA or 120 ug/ml L-RA, and RBC lysis monitored over a period of 5 hr. […] When a similar manipulation was performed with L-RA (DMPC:DMPG(7:3)) at a RA concentration of 120 ug/ml, little RBC lysis occurred (e.g., less than 10% after […]).\nA study was also conducted concerning the effects upon RBC lysis in 2 hr of free RA and L-RA (DMPC:DMPG(7:3)) at various concentrations. […]"}, "in vivo": {"test": "in vivo", "details": "mouse, in vivo, iv", "description": "(§1) The acute toxicity of free and liposomal all-trans retinoic acid was studied in CD1 mice. Free all-trans retinoic acid was prepared as an emulsion in normal saline containing 10% DMSO and 2% Tween 80 at a concentration of 3 to 5 mg/ml. Liposomal all-trans retinoic acid was prepared using a lipid:drug ratio of 15:1. The final concentration of all-trans retinoic acid in the liposomal preparation was 3 mg/ml. Empty liposomes of the same lipid composition (DMPC:DMPG 7:3) were also tested at doses equivalent to 80 mg/kg, 100 mg/kg, and 120 mg/kg of liposomal-all trans retinoic acid. Normal saline containing 10% DMSO and 2% Tween 80 was also tested as a control at a dose equivalent to 50 mg/kg of free all-trans retinoic acid. All drugs tested were injected intravenously via tail vein as a single bolus. The injected volumes of free and liposomal-all-trans retinoic acid were the same for each dose."}, "CD1 mice": {"tested_on": "CD1 mice", "test": "in vivo", "details": "for Number Animals with seizures / Number Animals alive (72 hr): CD1, mouse, in vivo, iv", "description": "as §1"}, "[2]": {"tested_on": "human monocytic cell line THP-1", "test": "Cell growth inhibition, 72 hr, 96 well microtiter plate", "type": "cell-based", "details": "concentrations of less than 1 µg RA/ml, 72 hr at 37°C", "description": "(§2) Cells of the human monocytic cell line THP-1 and of the human histiocytic cell line U-937 were inoculated at about 20,000 cells per well in aliquots of eucaryotic cell culture medium contained in wells of a 96 well microtiter plate. The medium in various wells contained different amount of free RA or L-RA (DMPC:DMPG 7:3). The cells were incubated for 72 hr at 37°C and cell growth determined and compared to that of controls without any form of retinoic acid. […] At concentrations of less than 1 µg RA/ml, both preparations inhibited cell growth by over 90%."}, "[3]": {"tested_on": "human histiocytic cell line U-937", "test": "Cell growth inhibition, 72 hr, 96 well microtiter plate", "type": "cell-based", "details": "retinoic acid concentration of about 10 ug/ml", "description": "as §2\nCells of the human histiocytic cell line U-937 were distributed and cultured under the same conditions as the THP-1 cells in the prior experiment. […] It should be noted that the U-937 cells were almost completely growth-inhibited by L-RA at a retinoic acid concentration of about 10 ug/ml while this amount of free RA inhibited growth less than 50%."}, "[4]": {"tested_on": "human monocytic leukemia THP-1 cells", "test": "Morphological change associated with cellular differentiation", "type": "cell-based", "details": "0.3 µg RA/ml, 72 hr incubation", "description": "The generally ovate form was retained when the cells were cultured in the absence of any free or liposomal retinoic acid."}, "tissue transglutaminase": {"tested_on": "tissue transglutaminase", "test": "Induction of tissue transglutaminase activity in THP-1 cells (marker for monocytic cell differentiation)", "type": "cell-based, human", "details": "0.3 µg/ml or 0.6 µg/ml, 24 hr"}, "M5076": {"tested_on": "M5076", "test": "In vitro sensitivity of M5076 cells to retinoic acid", "type": "cell-based"}, "THP-1 cells": {"tested_on": "THP-1 cells", "test": "Tumor formation of in vitro treated THP-1 cells injected subcutaneously into mice", "type": "in vivo", "details": "cells treated in vitro for 72 hours, injected subcutaneously into male mice"}}, "data": [{"smiles": "CC1=C(/C=C/C(C)=C/C=C/C(C)=C/C(=O)O)C(C)(C)CCC1", "note": "[Free RA, all-trans retinoic acid]", "values": [{"measurement": "RBC lysis over time", "setting": "[1]; 10 ug/ml, 37°C in PBS, between about 1 hr and about 3 hr", "value": "extensively lysed a large majority of the erythrocytes"}, {"measurement": "RBC lysis in 2 hr as a function of concentration", "setting": "[1]; between about 5 ug RA/ml and about 30 ug RA/ml, 2 hr", "value": "linearly increasing RBC lysis"}, {"measurement": "LD50 at 72 h", "setting": "in vivo", "value": 32, "unit": "mg/kg"}, {"measurement": "Number Animals with seizures", "setting": "CD1 mice; 10 mg/kg", "value": "0/6"}, {"measurement": "Number Animals alive (72 hr)", "setting": "CD1 mice; 10 mg/kg", "value": "6/6"}, {"measurement": "Number Animals with seizures", "setting": "CD1 mice; 20 mg/kg", "value": "6/6"}, {"measurement": "Number Animals alive (72 hr)", "setting": "CD1 mice; 20 mg/kg", "value": "5/6"}, {"measurement": "Number Animals with seizures", "setting": "CD1 mice; 30 mg/kg", "value": "6/6"}, {"measurement": "Number Animals alive (72 hr)", "setting": "CD1 mice; 30 mg/kg", "value": "4/6"}, {"measurement": "Number Animals with seizures", "setting": "CD1 mice; 40 mg/kg", "value": "3/3"}, {"measurement": "Number Animals alive (72 hr)", "setting": "CD1 mice; 40 mg/kg", "value": "0/3"}, {"measurement": "Number Animals with seizures", "setting": "CD1 mice; 50 mg/kg", "value": "3/3"}, {"measurement": "Number Animals alive (72 hr)", "setting": "CD1 mice; 50 mg/kg", "value": "0/3"}, {"measurement": "maximum non-toxic dose", "setting": "CD1 mice; i.v. single bolus, CD1 mice", "value": 10, "unit": "mg/kg"}, {"measurement": "inhibition of THP-1 cell growth", "setting": "[2]", "value": "over 90%"}, {"measurement": "inhibition at 10 µg/mL", "setting": "[3]", "value": "< 50", "unit": "%"}, {"measurement": "morphological appearance of THP-1 cells", "setting": "[4]", "value": "more flattened and spread morphological appearance"}, {"measurement": "tissue transglutaminase enzymic activity", "setting": "tissue transglutaminase", "value": "increased levels of tissue transglutaminase enzymic activity"}, {"measurement": "sensitivity of M5076 cell line in in vitro studies", "setting": "M5076", "value": "resistant"}, {"measurement": "tumor development of treated THP-1 cells in mice", "setting": "THP-1 cells", "value": "failed to develop into tumors"}]}]}
